# Test results as given in patent US8586604B2, “Inhibitors of the microsomal prostaglandin E2 synthase-1” (Boehringer Ingelheim International GmbH, priority 2010, dated 2013).
# Biological target: T1, recombinant human mPGES-1 (Homo sapiens, UniProt O14684)
# T1 construct: made in house; host or cells: Rosetta E. coli (membrane/microsome fraction)
# T1 sequence (O14684 1-152): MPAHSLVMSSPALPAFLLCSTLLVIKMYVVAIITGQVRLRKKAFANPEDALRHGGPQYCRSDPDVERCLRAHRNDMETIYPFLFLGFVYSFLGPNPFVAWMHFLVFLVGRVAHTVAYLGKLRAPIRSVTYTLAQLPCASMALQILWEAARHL
# Assay: mPGES-1 enzyme assay (HTRF detection of PGE2)
# Format: biochemical
# Settings: recombinant human mPGES-1 microsomes, PGH2 2 μM, read-out: mPGES-1 inhibitory effect IC50
# Description: Microsomes from Rosetta E. coli bacteria expressing recombinant human mPGES-1 can be derived as described below:
# Inoculate 5 ml LB with Ampicilin (50 μg/ml) and Chloramphenicol (34 μg/ml) with bacteria from freeze culture. Incubate 8 h at 37° C. with 200 rpm. Thereafter, inoculate 500-1000 ml LB containing Amp and Chloro with the 5 ml on culture and grow to OD640 of 0.8-1.0.
# Chill the culture to +4° C. before induction. Induce the culture with IPTG at a final concentration of 400 μM. Express the protein at room temp 18-23° C. with 200 rpm shaking over night.
# The following steps can be performed on the following day: • 1. Spin down the cells in 250 ml centrifuge flasks for 15 min at 7000 rpm (Beckmann Coulte Avanti J-E centrifuge) • 2. Dissolve the pellet from 250 ml culture in 12.5 ml homogenization buffer • 3. (15 mM Tris-HCL pH8, 1 mM EDTA pH8, 0.25 mM Sucrose, 2.5 mM GSH, 1Tablet Protease inhibitor per 50 ml buffer) • 4. Disintegrate the cells by sonication, 5×10 seconds at 48% amplitude of a 750 W sonifier • 5. Add 2.5 ml MgCl2 (100 mM) and DNase 12.5 μl (0.8 mg/ml) and incubate on ice for 30 min • 6. Spin down the bacteria debris and save the supernatant, 7000 rpm for 15 min • 7. Isolate the protein containing membranes in the supernatant by ultracentrifugation 120000×g for 2 hour at 4° C. (Sorvall T880 rotor). • 8. Discard the supernatant and dissolve the pellet in 20 mM Potassium phosphate buffer pH7.4 (KH2PO4 and K2HPO4) buffer by sonication (5×10 s, 30% of a 50 W sonifier) and aliquot the enzyme and store aliquots at −80° C.
# Before each experiment is performed an aliquot of the enzyme is thawed and it can then be dissolved in 0.1 M Potassium phosphate buffer pH7.4 (KH2PO4 and K2HPO4) buffer containing 2.5 mM GSH.
# The aim of this assay is to determine the affinity of a test compound for the mPGES-1 enzyme.
# 47 μl of recombinant human mPGES-1 (˜0.5 μg protein/well) containing microsomal suspension in a buffer containing GSH, (2.5 mmol/L L-Glutathione reduced, dissolved in 0.1 mol/L Phosphat Buffer pH 7.4) is dispensed in a 384-well plate and thereafter 1 μl of the test compound(s) is/are added and incubated for 25 minutes at room temperature. The enzyme reaction is started by the addition of 2 ul PGH2 (final conc. 2 μM) dissolved in water-free Diglyme. After 60 seconds the reaction is terminated by addition of a stop solution containing FeCl2 (10 μL 0.074 mol/l FeCl2). The samples are diluted between 1:25 in PBS (Phosphate Buffered Saline). 10 μl of the diluted samples are transferred to 384-well low volume plate. In order to quantify the amount of PGE2 that has been formed, a homogenous time resolved fluorescent (HTRF) detecting of PGE2 has been performed using a commercially available kit from Cisbio according to the manufactures recommendation. This HTRF-based assay has been described in detail (see: Goedken et al., J Biomol Screen, 2008, 13(7), 619-625). Briefly, the diluted samples are mixed with 5 μl PGE2-d2 conjungate and 5 μl anti-PGE2 cryptate conjungate. After an incubation period of the plates over night, the fluorescence is measured by the use of an appropriate microplate reader.
# The fluorescence of Europium cryptate (maxex=307 nm, maxem=620 nm) and d2-PGE2 (maxex=620 nm, maxem=665 nm) are measured.
# The extent of the specific HTRF is measured as a ratio of the emission intensity at 665 nm vs. that at 620 nm at an excitation pulse of 320 nm. The quantification plate contains also wells with different concentrations of PGE2 as calibration curve for the calculation of the PGE2 concentrations from the HTRF ratio values.
# From all mPGES enzyme assay the background is subtracted and the IC50 is calculated over a nonlinear regression with conventional software.
row,IC50 [nM],SMILES
1,9,"Cn1c(Nc2cc(CNC(=O)C(C)(C)C)ccc2Cl)nc2cc(C(=O)Nc3ccc(Br)cc3)c(OCC(F)F)nc21 [Example 1, N-{4-Chloro-3-[6-(4-bromo-phenylcarbamoyl)-5-(2,2-difluoro-ethoxy)-3-methyl-3H-imidazo[4,5-b]pyridin-2-ylamino]benzyl}-2,2-dimethyl-propionamide]"
2,3,"Cn1c(Nc2cc(CNC(=O)C(C)(C)C)ccc2Cl)nc2cc(C(=O)N[C@H]3CC[C@H](C(F)(F)F)CC3)c(OCC(F)F)nc21 [Example 2, N-{4-Chloro-3-[6-(trans-4-trifluoromethyl-cyclohexylcarbamoyl)-5-(2,2-difluoro-ethoxy)-3-methyl-3H-imidazo[4,5-b]pyridin-2-ylamino]benzyl}-2,2-dimethyl-propionamide]"
3,21,COCCOc1nc2nc(Nc3cc(CNC(=O)C4(C(F)(F)F)CC4)ccc3Cl)[nH]c2cc1C(=O)N[C@H]1CC[C@H](C(F)(F)F)CC1 [Example 3]
4,8,COCCOc1nc2c(cc1C(=O)N[C@H]1CC[C@H](C(F)(F)F)CC1)nc(Nc1cc(CNC(=O)C3(C(F)(F)F)CC3)ccc1Cl)n2C [Example 4]
5,4,O=C(N[C@H]1CC[C@H](C(F)(F)F)CC1)c1cc2nc(Nc3cc(CNC(=O)C4(C(F)(F)F)CC4)ccc3Cl)[nH]c2nc1OCC(F)F [Example 5]
6,4,Cn1c(Nc2cc(CNC(=O)C3(C(F)(F)F)CC3)ccc2Cl)nc2cc(C(=O)N[C@H]3CC[C@H](C(F)(F)F)CC3)c(OCCF)nc21 [Example 6]
7,8,O=C(N[C@H]1CC[C@H](C(F)(F)F)CC1)c1cc2[nH]c(Nc3cc(CNC(=O)C4(C(F)(F)F)CC4)ccc3Cl)nc2nc1OCCF [Example 7]
8,3,"CC(C)(C)C(=O)NCc1ccc(Cl)c(Nc2nc3cc(C(=O)N[C@H]4CC[C@H](C(F)(F)F)CC4)c(OCC(F)F)nc3[nH]2)c1Cl [Example 8, N-{2,4-Dichloro-3-[6-(trans-4-trifluoromethyl-cyclohexylcarbamoyl)-5-(2,2-difluoro-ethoxy)-1H-imidazo[4,5-b]pyridin-2-ylamino]benzyl}-2,2-dimethyl-propionamide]"
9,6,"Cn1c(Nc2c(Cl)ccc(CNC(=O)C(C)(C)C)c2Cl)nc2cc(C(=O)N[C@H]3CC[C@H](C(F)(F)F)CC3)c(OCC(F)F)nc21 [Example 9, N-{2,4-Dichloro-3-[6-(trans-4-trifluoromethyl-cyclohexylcarbamoyl)-5-(2,2-difluoro-ethoxy)-3-methyl-3H-imidazo[4,5-b]pyridin-2-ylamino]benzyl}-2,2-dimethyl-propionamide]"
10,5,"Cn1c(Nc2c(F)ccc(CNC(=O)C(C)(C)C)c2F)nc2cc(C(=O)N[C@H]3CC[C@H](C(F)(F)F)CC3)c(OCC(F)F)nc21 [Example 10, N-{2,4-Difluoro-3-[6-(trans-4-trifluoromethyl-cylohexylcarbamoyl)-5-(2,2-difluoro-ethoxy)-3-methyl-3H-imidazo[4,5-b]pyridin-2-ylamino]benzyl}-2,2-dimethyl-propionamide]"
11,4,CC(C)(C)C(=O)NCc1ccc(F)c(Nc2nc3cc(C(=O)N[C@H]4CC[C@H](C(F)(F)F)CC4)c(OCC(F)F)nc3[nH]2)c1F [Example 11]
12,1,O=C(N[C@H]1CC[C@H](C(F)(F)F)CC1)c1cc2nc(Nc3c(Cl)ccc(CNC(=O)C4(C(F)(F)F)CC4)c3Cl)[nH]c2nc1OCCOC(F)F [Example 12]
13,1,CC(C)(C)C(=O)NCc1ccc(Cl)c(Nc2nc3cc(C(=O)NCC(F)F)c(OCC(F)F)nc3n2CC(F)F)c1Cl [Example 14]
14,4,CC(C)(C)C(=O)NCc1ccc(Cl)c(Nc2nc3cc(C(=O)N[C@H]4CC[C@H](C(F)(F)F)CC4)c(OCC(F)F)nc3n2CC(F)F)c1Cl [Example 15]
15,1,"CC(C)(C)C(=O)NCc1ccc(Cl)c(Nc2nc3cc(C(=O)N[C@H]4CC[C@H](C(F)(F)F)CC4)c(OCC(F)F)nc3[nH]2)c1F [Example 156, N-{2-Fluoro-4-chloro-3-[6-(trans-4-trifluoromethyl-cyclohexylcarbamoyl)-5-(2,2-difluoro-ethoxy)-1H-imidazo[4,5-b]pyridin-2-ylamino]benzyl}-2,2-dimethyl-propionamide]"
16,2,CC(C)(C)C(=O)NCc1ccc(Cl)c(Nc2nc3cc(C(=O)Nc4ccc(F)c(Cl)c4)c(OCC(F)F)nc3[nH]2)c1Cl [Example 157]
